Laboratory results taken from publication PMC10763615, “Identification and engineering of potent cyclic peptides with selective or promiscuous binding through biochemical profiling and bioinformatic data analysis” (RSC Chemical Biology, 2023).
Where two headings read alike, the source gives them in different places.

Experiments:
FGF-R4 ECD [1] = biological target: T1, FGF-R4 ECD (Homo sapiens, UniProt P22455); test: single concentration BLI of crude peptides; format: binding; conditions: read-out: KD (4)
T1 construct: DNA constructs for the extracellular domain (ECD) of human FGF-; HPC4 (C); made in house; host or cells: HEK 293-6E
T1 sequence (P22455 22-369 limits assumed): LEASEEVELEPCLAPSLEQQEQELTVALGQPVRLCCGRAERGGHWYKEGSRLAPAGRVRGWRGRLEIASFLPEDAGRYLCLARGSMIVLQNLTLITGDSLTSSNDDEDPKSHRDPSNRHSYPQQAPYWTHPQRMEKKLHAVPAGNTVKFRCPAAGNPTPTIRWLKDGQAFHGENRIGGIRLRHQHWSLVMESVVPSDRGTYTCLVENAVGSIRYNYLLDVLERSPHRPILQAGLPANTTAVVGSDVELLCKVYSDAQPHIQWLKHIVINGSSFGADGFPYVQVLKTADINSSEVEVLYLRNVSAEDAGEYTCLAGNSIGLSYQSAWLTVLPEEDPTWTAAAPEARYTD
Outline: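 Biotinylated FGF-R ECD on streptavidin biosensors was dipped into ~1 μM crude peptide in PBS pH7.4 with 0.05% Tween-20 and 0.01% BSA for association, then into buffer for dissociation, and followed by BLI. Fitted KD values were adjusted for peptide concentration measured by UPLC-CAD.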

FGF-R4 ECD [2] = biological target: T1, FGF-R4 ECD; test: multi-concentration BLI of purified peptides; format: binding
Method: (§1) KD affinity binding measurements were obtained by biolayer interferometry (BLI) instruments (Fortebio Octet HTX, or Sartorius Octet RH16 using either 8 or 16 channel mode.
(§2) For single concentration binding experiments, 50 μM peptide stocks in folding buffer were diluted 1:50 in mRNA display selection buffer (PBS pH7.4 supplemented with 0.05% Tween-20 and 0.01% BSA) in either a 96 well black plate, or a 384 well tilted bottom microplate (ForteBio). Biotinylated FGF-R protein was loaded onto Streptavidin-functionalised biosensors (ForteBio) and immersed into ~1 μM peptide to obtain association kinetics curves. Dissociation kinetics curves were obtained by subsequent immersion of ligand-associated loaded sensors into a 1:50 dilution of folding buffer in mRNA display selection buffer. Fitted KD data was adjusted for concentration as determined by UPLC-CAD.
(§3) For accurate multi-concentration KD determination, dilution series of each peptide were made, and association and dissociation kinetics curves were obtained as above for each concentration to fit a multi-point KD binding model. Data collection and analysis was performed using the Octet Instrument Control […]
(§4) concentration assay kinetics curves shown in supplementary Figure S 19-24.

FGF-R3C ECD [3] = biological target: T2, FGF-R3C ECD (Homo sapiens, UniProt P22607); test: biochemical
T2 sequence (P22607 23-375 limits assumed): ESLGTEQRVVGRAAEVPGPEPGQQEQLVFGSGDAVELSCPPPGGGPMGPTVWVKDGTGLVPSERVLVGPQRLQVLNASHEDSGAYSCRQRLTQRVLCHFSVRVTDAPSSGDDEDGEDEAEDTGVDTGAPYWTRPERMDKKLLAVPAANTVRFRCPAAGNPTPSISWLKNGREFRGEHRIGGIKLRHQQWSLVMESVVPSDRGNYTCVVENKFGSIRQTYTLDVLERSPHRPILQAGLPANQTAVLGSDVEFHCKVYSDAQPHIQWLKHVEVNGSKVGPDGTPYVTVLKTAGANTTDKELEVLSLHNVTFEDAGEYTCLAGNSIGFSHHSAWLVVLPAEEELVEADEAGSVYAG
Method: as §1, §2, §3, §4

FGF-R1C ECD [4] = biological target: T3, FGF-R1C ECD (Homo sapiens, UniProt P11362); test: biochemical
T3 sequence (P11362 22-376 limits assumed): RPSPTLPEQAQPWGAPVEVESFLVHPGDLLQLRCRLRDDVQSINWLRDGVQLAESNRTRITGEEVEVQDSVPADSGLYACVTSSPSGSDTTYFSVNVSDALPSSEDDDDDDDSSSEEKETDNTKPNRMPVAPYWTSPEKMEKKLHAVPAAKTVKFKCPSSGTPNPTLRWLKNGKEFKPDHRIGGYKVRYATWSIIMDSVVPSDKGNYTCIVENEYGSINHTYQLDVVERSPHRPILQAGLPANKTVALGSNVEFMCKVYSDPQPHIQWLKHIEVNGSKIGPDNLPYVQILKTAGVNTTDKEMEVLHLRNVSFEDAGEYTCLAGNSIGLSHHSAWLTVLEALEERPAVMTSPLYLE
Method: as §1, §2, §3, §4

FGF-R3C ECD [5] = biological target: T2, FGF-R3C ECD; test: biochemical; format: binding; parameters: DNA constructs for the extracellular domain (ECD) of human FGF-; HPC4 (C); made in house; host or cells: HEK 293-6E
Outline: (§5)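 Biolayer interferometry with biotinylated FGF-R ECD on streptavidin biosensors in PBS pH 7.4, 0.05% Tween-20, 0.01% BSA. Multi-concentration: purified peptide dilution series fitted to a multi-point KD model.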

FGF-R1C ECD [6] = biological target: T3, FGF-R1C ECD; test: biochemical; format: binding; parameters: DNA constructs for the extracellular domain (ECD) of human FGF-; HPC4 (C); made in house; host or cells: HEK 293-6E
Outline: as §5

[7] = crude T18 selection 1 (1:1:1) peptides, single concentration BLI (Table S4)
[8] = purified trimer-18 library peptides

For `CSCC[C@H](NC(C)=O)C(=O)N[C@H]1CSSC[C@@H](C(=O)NCC(=O)N[C@@H](CO)C(=O)NCC(=O)N[C@@H](CO)C(=O)N[C@@H](CC(=O)O)C(=O)N[C@@H](Cc2ccc(O)cc2)C(=O)N[C@@H](CCCCN)C(=O)N[C@@H](CC(=O)O)C(=O)N[C@@H](CC(=O)O)C(=O)N[C@@H](CC(=O)O)C(=O)N[C@@H](CC(=O)O)C(=O)N[C@@H](CCCCN)C(N)=O)NC(=O)[C@H]([C@@H](C)O)NC(=O)[C@H](C(C)C)NC(=O)[C@H](CC(C)C)NC(=O)[C@H](CC(C)C)NC(=O)[C@H](Cc2c[nH]c3ccccc23)NC(=O)[C@H](Cc2ccc(O)cc2)NC(=O)[C@H](CC(C)C)NC(=O)[C@H](C(C)C)NC(=O)[C@H](CCC(=O)O)NC(=O)[C@H](CCCNC(=N)N)NC(=O)[C@H](CCC(=O)O)NC1=O` [4.15], the Kd (FGF-R4 ECD [1]; [7]) was 128 nM, the Kd (FGF-R4 ECD [2]; [8]) was 378 nM and the Kd (FGF-R3C ECD [3]) was over 1000 nM. For the same molecule, the Kd (FGF-R1C ECD [4]) was over 1000 nM, the Kd (FGF-R3C ECD [5]) was over 10000 nM and the Kd (FGF-R1C ECD [6]) was 48 nM.

Work on `CSCC[C@H](NC(C)=O)C(=O)N[C@H]1CSSC[C@@H](C(=O)NCC(=O)N[C@@H](CO)C(=O)NCC(=O)N[C@@H](CO)C(=O)N[C@@H](CC(=O)O)C(=O)N[C@@H](Cc2ccc(O)cc2)C(=O)N[C@@H](CCCCN)C(=O)N[C@@H](CC(=O)O)C(=O)N[C@@H](CC(=O)O)C(=O)N[C@@H](CC(=O)O)C(=O)N[C@@H](CC(=O)O)C(=O)N[C@@H](CCCCN)C(N)=O)NC(=O)[C@H](Cc2c[nH]cn2)NC(=O)[C@H](CCCNC(=N)N)NC(=O)[C@H](CC(C)C)NC(=O)[C@H](C(C)C)NC(=O)[C@H](CCCCN)NC(=O)[C@H](Cc2ccc(O)cc2)NC(=O)[C@H](CC(C)C)NC(=O)[C@H](CC(C)C)NC(=O)[C@H](C(C)C)NC(=O)[C@H](CC(N)=O)NC1=O` [4.11] yielded a Kd (FGF-R4 ECD [1]; [7]) of 11 nM, a Kd (FGF-R4 ECD [2]; [8]) of 543 nM and a Kd (FGF-R3C ECD [3]) of 115 nM. For the same molecule, the Kd (FGF-R1C ECD [4]) was over 1000 nM, the Kd (FGF-R3C ECD [5]) was over 10000 nM and the Kd (FGF-R1C ECD [6]) was over 10000 nM.

`CC[C@H](C)[C@@H]1NC(=O)[C@H](CCCCN)NC(=O)[C@H](Cc2ccc(O)cc2)NC(=O)[C@H]([C@@H](C)CC)NC(=O)[C@H](CO)NC(=O)[C@H](C(C)C)NC(=O)[C@H](CC(C)C)NC(=O)[C@@H](NC(=O)[C@H](CCSC)NC(C)=O)CSSC[C@@H](C(=O)NCC(=O)N[C@@H](CO)C(=O)NCC(=O)N[C@@H](CO)C(=O)N[C@@H](CC(=O)O)C(=O)N[C@@H](Cc2ccc(O)cc2)C(=O)N[C@@H](CCCCN)C(=O)N[C@@H](CC(=O)O)C(=O)N[C@@H](CC(=O)O)C(=O)N[C@@H](CC(=O)O)C(=O)N[C@@H](CC(=O)O)C(=O)N[C@@H](CCCCN)C(N)=O)NC(=O)[C@H]([C@@H](C)O)NC(=O)[C@H](CCCNC(=N)N)NC(=O)[C@H](CCSC)NC1=O` [4.1] showed a Kd (FGF-R4 ECD [1]; crude NNK peptides, single concentration BLI (Table S3)) of 193 nM, a Kd (FGF-R4 ECD [2]; purified NNK library peptides) of over 1000 nM and a Kd (FGF-R3C ECD [3]) of over 1000 nM. For the same molecule, the Kd (FGF-R1C ECD [4]) was over 1000 nM, the Kd (FGF-R3C ECD [5]) was 6120 nM and the Kd (FGF-R1C ECD [6]) was over 10000 nM.

`CSCC[C@H](NC(C)=O)C(=O)N[C@H]1CSSC[C@@H](C(=O)NCC(=O)N[C@@H](CO)C(=O)NCC(=O)N[C@@H](CO)C(=O)N[C@@H](CC(=O)O)C(=O)N[C@@H](Cc2ccc(O)cc2)C(=O)N[C@@H](CCCCN)C(=O)N[C@@H](CC(=O)O)C(=O)N[C@@H](CC(=O)O)C(=O)N[C@@H](CC(=O)O)C(=O)N[C@@H](CC(=O)O)C(=O)N[C@@H](CCCCN)C(N)=O)NC(=O)[C@H](C(C)C)NC(=O)[C@H](Cc2c[nH]c3ccccc23)NC(=O)[C@H](Cc2c[nH]c3ccccc23)NC(=O)[C@H](CC(C)C)NC(=O)[C@H](CCCCN)NC(=O)[C@H](Cc2c[nH]c3ccccc23)NC(=O)[C@H](CCCNC(=N)N)NC(=O)[C@H](Cc2ccc(O)cc2)NC(=O)[C@H](C)NC(=O)[C@H](CC(=O)O)NC(=O)[C@H](CO)NC(=O)[C@H](CCC(=O)O)NC1=O` [4.12] was tested, and the Kd (FGF-R4 ECD [1]; [7]) was 10 nM, the Kd (FGF-R4 ECD [2]; [8]) was 15 nM and the Kd (FGF-R3C ECD [3]) was over 1000 nM. The Kd (FGF-R1C ECD [4]) was over 1000 nM, the Kd (FGF-R3C ECD [5]) was over 10000 nM and the Kd (FGF-R1C ECD [6]) was 1570 nM.
